Test results from paper PMC7147261, “Selective Antibacterial Activity and Lipid Membrane Interactions of Arginine-Rich Amphiphilic Peptides” (ACS Applied Bio Materials, 2020).
Ends that are not written are not given here.

Key:
[1] = previously reported; cited from earlier work
Experimental: The two “blocky” surfactant-like peptides […] and […] are both able to self-assemble in aqueous solution at concentrations in excess of critical values, obtained from fluorescence probe assays. The cac = 0.3 wt % (≡ 3.2 mM) for […] is higher than that previously obtained for the compositional homologue peptide […], for which the cac = 2.3 mM.[16]

in vitro = format: cell-based, human; conditions: human
Experimental: (§1) The cytotoxicity of both R3F3 and R4F4 was examined. In vitro cell culture was conducted using 161Br (European Collection of Authenticated Cell Cultures, ECACC) cells, a human skin fibroblast cell line. Cells were cultured in EMEM (Eagle’s minimum essential medium), with 2 mM glutamine, enriched with 15% fetal bovine serum (FBS) and 1% nonessential amino acids (NEAA). Cells were maintained in a humidified atmosphere of 37 °C, 5% CO2.
(§2) Potential cytotoxicity effects were examined using the MTT (3-(4,5-dimethylthiazol-2-yl)-2,5-diphenyltetrazolium bromide) assay. The peptides were dissolved in complete media. Cells were seeded into a 96-well plate at 4 × 10^4 cells/mL and allowed to adhere for 24 h in 100 μL complete medium. After this, 100 μL of either complete media and/or peptide solution was added, to give either control solution, or solutions of peptide between the concentrations of 0.0625–4 mg/mL.
(§3) Cells were incubated for 67 h. After this, 20 μL MTT (5 mg/mL, in PBS) was added to each well plate and allowed to incubate for 5 h. After a further 5 h (72 h total), the solution was removed from the wells and replaced with 100 μL of DMSO per well, which dissolves the formazan crystals. Plates were incubated for 30 min, and then analyzed using a UV microplate reader (λ = 570 nm). Results are reported as a percentage cell viability compared to control (untreated) values, and fitted to a sigmoidal function using Origin Lab as a guide to the eye.
(§4) Figure S2. CD data for a) R3F3 and b) R4F4 with DPPG (concentrations indicated) .
(§5) Figure S3. Cytotoxicity profiles from MTT assays, where 161br Human fibroblasts were exposed to
(§6) (a) R3F3 and (b) R4F4 for 72 hours. Control solutions were prepared by incubating cells with complete
(§7) media. Results are reported as a percentage compared to the control solutions. Error bars are the
(§8) standard deviation of 3 biological replicates (with 3 technical replicates pe r assay). IC50 values
(§9) (vertical blue dashed lines) were calculated in Origin using sigmoidal fits to the viability data (dashed […]

[2] = system: 161br human skin fibroblasts; test: in vitro; format: cell-based; conditions: 72 h, 0.05 wt %
Experimental: as §1, §2, §3, §4, §5, §6, §7, §8, §9

Substance | cac of compositional homologue peptide [1] [mM] | IC50 at 72 h (in vitro) [mM] | viability of human skin fibroblasts [2] [%]
RFRFRF [previously studied alternating RF peptide, compositional homologue of R3F3] | 2.3 | – | –
RFRFRFRF [[RF]4, previously studied oligopeptide of alternating RF motifs, compositional homologue of R4F4] | 0.34 | – | –
RRRFFF [R3F3] | – | 4.31 | 77
RRRRFFFF [R4F4] | – | 2.15 | 81
